{"source": "patent US20190388381A1", "about": "“METHODS OF INHIBITING CISD PROTEIN-PLP COMPLEX FORMATION” (priority 2018, published 2019)", "key": {"mitoNEET [1]": {"target": "T1, mitoNEET (Homo sapiens, UniProt Q9NZ45)", "T1 sequence (Q9NZ45 33-108 limits assumed)": "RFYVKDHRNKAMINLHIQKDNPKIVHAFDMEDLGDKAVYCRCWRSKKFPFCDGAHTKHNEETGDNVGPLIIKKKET", "assay": "Thermal shift analysis (SYPRO Orange) of mitoNEET", "assay_type": "binding", "details": "changing concentrations of nucleotide"}, "mitoNEET [2]": {"target": "T1, mitoNEET", "assay": "Competitive spectrophotometric assay of mitoNEET⋅PLP complex formation", "assay_type": "biochemical", "details": "for Effect on mitoNEET⋅PLP complex formation: signal at λ=380 nm (unbound PLP) with increasing compound concentration"}, "PLP⋅mitoNEET complex": {"target": "T2, PLP⋅mitoNEET complex (Homo sapiens, UniProt Q9NZ45)", "T2 sequence (Q9NZ45 33-108 limits assumed)": "T1 sequence (Q9NZ45 33-108 limits assumed)", "assay": "Reaction of candidate amino acid substrates with the PLP⋅mitoNEET complex, followed by spectrophotometry", "assay_type": "biochemical", "details": "internal aldimine at λ=410 nm, signal at λ=330 nm, over 5000 sec", "text": "After PLP binding to the protein, the next step in many PLP-catalyzed enzymatic reactions is the formation of an external aldimine with one of several amino acid substrate such as cysteine, serine, alanine, or aspartate. Subsequently, an amazing diversity of chemistry can occur using this versatile coenzyme including transamination, racemization, and α,β-elimination. L-cysteine was selected as a first candidate substrate considering the previously shown reactivity of mitoNEET cysteine residues in the formation of mixed disulfide bonds. L-cysteine (0.5 mM) was added to the PLP⋅mitoNEET complex and the reaction was followed by spectrophotometry over 5000 sec."}, "mitoNEET [3]": {"target": "T3, mitoNEET (Homo sapiens, UniProt Q9NZ45)", "T3 construct": "Considering the presence of ten lysine residues in the soluble portion of mitoNEET", "T3 sequence (Q9NZ45 32-108 limits assumed)": "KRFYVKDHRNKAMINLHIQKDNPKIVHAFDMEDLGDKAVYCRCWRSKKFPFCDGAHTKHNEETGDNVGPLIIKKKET", "assay": "Proteomic analysis of mitoNEET lysine residues modified by PLP", "assay_type": "biochemical", "details": "2.0 molar equivalents of PLP, 20 minutes, PBS pH 7.5", "procedure": "Considering the presence of ten lysine residues in the soluble portion of mitoNEET, non-specific binding of PLP was a concern (PDB code 3EW0). Therefore, mitoNEET was treated with 2.0 molar equivalents of PLP over 20 minutes in phosphate buffered saline (PBS) at pH 7.5 and the reacted protein was analyzed by proteomics. […] Next, the product(s) were degraded by tryptic digest, separated by liquid chromatography, analyzed by tandem mass spectrometry, and the data deconvoluted by proteomic analysis (courtesy of Indiana University Medical School Proteomics Core)."}, "mitoNEET [4]": {"target": "T1, mitoNEET", "assay": "Spectroscopic kinetics of modification of mitoNEET by PLP", "assay_type": "biochemical", "details": "in contrast to PLP; data not shown", "text": "The initial discovery was made that CISD proteins bind PLP at a specific lysine residue that is in close proximity to the [2Fe-2S] cluster. PLP modifies the active site lysine residue of PLP-dependent enzymes forming the internal aldimine. In mitoNEET, PLP selectively modifies Lys55. While Lys55 was hypothesized to play a role in the reduction potential and stability of the [2Fe-2S] cluster in mitoNEET, its role as the binding site of PLP is novel to this work. MitoNEET was previously not known or classified as a PLP-dependent enzyme. Referring to FIG. 2, the formation of the mitoNEET⋅PLP and NAF-1⋅PLP complexes can be followed spectroscopically by the accumulation of a signal at λ=435 nm which is consistent with the ketoenamine tautomer and the attenuation of the signal at λ=380 nm which signifies the free PLP molecule. Concurrently with the increase of signal at λ=435 nm, an increase at λ=280 nm is also observed, but the chemical species contributing to this signal is currently unknown. In contrast to PLP, no reactivity of mitoNEET towards the non-phosphorylated pyridoxal (data not shown) was observed. […] An analogous lysine (Lys78) on NAF-1 is the analogous site for that protein."}}, "note": "Entries after “also recorded” stand apart in the source; their conditions may differ."}
{"smiles": "Nc1ncnc2c1ncn2[C@@H]1O[C@H](COP(=O)(O)OP(=O)(O)O)[C@@H](O)[C@H]1O", "note": "[ADP, adenosine diphosphate]", "values": [{"measurement": "Effect on mitoNEET thermal stability", "setting": "mitoNEET [1]", "result": "do not significantly affect the thermal shift profile"}]}
{"smiles": "Nc1ncnc2c1ncn2[C@@H]1O[C@H](COP(=O)(O)O)[C@@H](O)[C@H]1O", "note": "[AMP, adenosine monophosphate]", "values": [{"measurement": "Effect on mitoNEET⋅PLP complex formation", "setting": "mitoNEET [2]", "result": "no binding at Lys55; also recorded: does not correspond with an increase in the signal at λ=380 nm"}, {"measurement": "Effect on mitoNEET thermal stability", "setting": "mitoNEET [1]", "result": "do not significantly affect the thermal shift profile"}]}
{"smiles": "N[C@H](CS)C(=O)O", "note": "[D-cysteine]", "values": [{"measurement": "Reaction with the PLP⋅mitoNEET complex", "setting": "PLP⋅mitoNEET complex", "result": "also reacts with the PLP⋅mitoNEET complex (albeit at a slower rate)"}]}
{"smiles": "N[C@@H](CS)C(=O)O", "note": "[L-cysteine]", "values": [{"measurement": "Reaction with the PLP⋅mitoNEET complex", "setting": "PLP⋅mitoNEET complex", "result": "degradation of the internal aldimine"}]}
{"smiles": "N[C@@H](COP(=O)(O)O)C(=O)O", "note": "[L-phosphoserine]", "values": [{"measurement": "Reaction with the PLP⋅mitoNEET complex", "setting": "PLP⋅mitoNEET complex", "result": "did not react"}]}
{"smiles": "N[C@@H](CO)C(=O)O", "note": "[L-serine]", "values": [{"measurement": "Reaction with the PLP⋅mitoNEET complex", "setting": "PLP⋅mitoNEET complex", "result": "did not react"}]}
{"smiles": "Cc1ncc(COP(=O)(O)O)c(C=O)c1O", "note": "[PLP, pyridoxal-5′-phosphate]", "values": [{"measurement": "Percent Modified, lysine residue position 55", "setting": "mitoNEET [3]", "result": 48.1, "unit": "%"}, {"measurement": "Percent Modified, lysine residue position 68", "setting": "mitoNEET [3]", "result": 7.6, "unit": "%"}, {"measurement": "Percent Modified, lysine residue position 79", "setting": "mitoNEET [3]", "result": 6.1, "unit": "%"}, {"measurement": "Percent Modified, lysine residue position 89", "setting": "mitoNEET [3]", "result": 2.5, "unit": "%"}, {"measurement": "Percent Modified, lysine residue position 104", "setting": "mitoNEET [3]", "result": 1.5, "unit": "%"}]}
{"smiles": "NS(=O)(=O)c1cc(C(=O)O)c(NCc2ccco2)cc1Cl", "note": "[furosemide]", "values": [{"measurement": "Formation of mitoNEET⋅PLP complex after pre-treatment", "setting": "mitoNEET [2]; signal at 435 nm, pre-treatment with compound", "result": "lack of formation of mitoNEET⋅PLP complex"}, {"measurement": "Effect on mitoNEET⋅PLP complex formation", "setting": "mitoNEET [2]", "result": "competitive binding; also recorded: prohibits the mitoNEET⋅PLP complex formation"}, {"measurement": "Effect on mitoNEET⋅PLP complex formation", "setting": "mitoNEET [2]; listed as Furosemide", "result": "block the formation of the mitoNEET⋅PLP complex in a concentration dependent manner"}]}
{"smiles": "Cc1ncc(CO)c(C=O)c1O", "note": "[pyridoxal]", "values": [{"measurement": "Reactivity of mitoNEET towards compound", "setting": "mitoNEET [4]", "result": "no reactivity"}]}
